We go through 16 compounds from EP4755880A1, “SUBSTITUTED NITROGEN-CONTAINING BICYCLIC COMPOUND AND USE THEREOF” (Sunshine Lake Pharma Co., Ltd., priority 2023, dated 2025).

The target in one assay is PARP2 (Homo sapiens, UniProt Q9UGN5). The assay can be described thus: biochemical.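 Note: PARP2 enzyme ELISA on histone-coated plates, Strep-HRP detection with chemiluminescence read-out, 10 min compound preincubation with enzyme, inhibition scaled between Max and Min signal controls.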
Another assay deals with PARP1 (Homo sapiens, UniProt P09874). The assay can be described thus: Inhibition of PARP1 enzyme activity (ELISA, chemiluminescence). The following applies: for IC50: ELISA, histone-coated plate, NAD+, 60 min at 25 °C; for Selectivity PARP2/PARP1: ratio of PARP2 IC50 to PARP1 IC50. Type of assay: biochemical. (In general: ELISA stands for enzyme-linked immunosorbent assay.)
PARP1, sequence (P09874 whole entry): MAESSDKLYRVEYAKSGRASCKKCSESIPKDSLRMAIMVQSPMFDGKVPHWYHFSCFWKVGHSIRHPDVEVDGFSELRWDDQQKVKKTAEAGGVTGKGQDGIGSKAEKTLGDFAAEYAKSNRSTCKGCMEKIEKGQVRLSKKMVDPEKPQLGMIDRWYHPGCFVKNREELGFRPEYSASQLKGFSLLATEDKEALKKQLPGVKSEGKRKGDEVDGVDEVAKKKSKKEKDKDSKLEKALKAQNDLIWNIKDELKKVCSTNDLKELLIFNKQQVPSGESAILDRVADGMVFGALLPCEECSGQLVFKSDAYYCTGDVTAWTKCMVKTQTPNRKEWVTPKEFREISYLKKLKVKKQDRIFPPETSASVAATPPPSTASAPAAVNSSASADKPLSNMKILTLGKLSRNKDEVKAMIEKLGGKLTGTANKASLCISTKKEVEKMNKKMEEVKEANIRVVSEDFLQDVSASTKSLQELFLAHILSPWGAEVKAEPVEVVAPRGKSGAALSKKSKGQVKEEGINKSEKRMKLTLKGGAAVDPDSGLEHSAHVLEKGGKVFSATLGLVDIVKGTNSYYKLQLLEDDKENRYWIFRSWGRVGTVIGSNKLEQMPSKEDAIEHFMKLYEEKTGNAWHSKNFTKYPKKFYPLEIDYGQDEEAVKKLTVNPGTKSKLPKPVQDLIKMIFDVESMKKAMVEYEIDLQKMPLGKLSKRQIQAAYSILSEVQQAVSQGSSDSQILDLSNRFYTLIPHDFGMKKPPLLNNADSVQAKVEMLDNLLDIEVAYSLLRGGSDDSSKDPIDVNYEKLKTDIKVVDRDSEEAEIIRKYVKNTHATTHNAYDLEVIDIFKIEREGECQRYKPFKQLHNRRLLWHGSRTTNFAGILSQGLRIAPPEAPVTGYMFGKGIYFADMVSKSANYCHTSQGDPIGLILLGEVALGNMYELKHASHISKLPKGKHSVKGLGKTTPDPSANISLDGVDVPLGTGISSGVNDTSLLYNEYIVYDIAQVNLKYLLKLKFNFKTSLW

Some results are limits rather than exact numbers.

PARP2, sequence (Q9UGN5 whole entry): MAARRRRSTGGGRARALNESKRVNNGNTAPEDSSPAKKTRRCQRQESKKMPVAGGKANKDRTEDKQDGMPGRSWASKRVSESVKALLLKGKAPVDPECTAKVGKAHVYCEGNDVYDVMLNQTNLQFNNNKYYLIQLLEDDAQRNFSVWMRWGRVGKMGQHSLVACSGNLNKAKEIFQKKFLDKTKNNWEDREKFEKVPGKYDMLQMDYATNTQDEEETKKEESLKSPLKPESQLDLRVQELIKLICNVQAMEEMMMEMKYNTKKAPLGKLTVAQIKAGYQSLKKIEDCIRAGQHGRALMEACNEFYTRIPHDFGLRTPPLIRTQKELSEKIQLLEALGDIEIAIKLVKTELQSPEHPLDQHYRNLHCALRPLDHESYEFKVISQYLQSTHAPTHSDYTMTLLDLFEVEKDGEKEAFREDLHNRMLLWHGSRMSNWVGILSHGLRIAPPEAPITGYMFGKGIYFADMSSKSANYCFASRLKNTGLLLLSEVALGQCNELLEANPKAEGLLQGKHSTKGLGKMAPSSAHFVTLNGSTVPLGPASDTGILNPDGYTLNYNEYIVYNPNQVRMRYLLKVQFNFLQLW

The term IC50 denotes the concentration needed to halve the response being measured. A lower IC50 goes with greater potency in that assay. In the case of `CNC(=O)c1ccc(N2CCN(Cc3cc(OC(F)(F)F)c4nc(C)c(=O)[nH]c4c3)CC2)c(F)n1` [Example 17, 6-fluoro-N-methyl-5-(4-((2-methyl-3-oxo-8-(trifluoromethoxy)-3,4-dihydroquinoxalin-6-yl)methyl)piperazin-1-yl)picolinamide], half-maximal inhibition on PARP2 (IC50) was put at 169 nM. In addition, at PARP1, the IC50 was determined as 3.6 nM and the “Selectivity PARP2/PARP1” value was 46.9.
In turn, `CC#Cc1cc(CN2CC=C(c3ccc(C(=O)NC)nc3F)CC2)c(F)c2[nH]c(=O)c(C)nc12` [Example 23, 2-fluoro-1'-((5-fluoro-2-methyl-3-oxo-8-(prop-1-yn-1-yl)-3,4-dihydroquinoxalin-6-yl)methyl)-N-methyl-1',2',3',6'-tetrahydro-[3,4'-bipyridine]-6-carboxamide] yielded a 50% inhibitory concentration (IC50) against PARP2 greater than 10000 nM. Further, on PARP1, the IC50 was found to be 2.4 nM and the “Selectivity PARP2/PARP1” value was determined as 4113.1.
At PARP2, `CNC(=O)c1ccc(C2=CCN(Cc3cc(C#CC4CC4)c4nc(C)c(=O)[nH]c4c3F)CC2)c(F)n1` [Example 24, 1'-((8-(cyclopropylethynyl)-5-fluoro-2-methyl-3-oxo-3,4-dihydroquinoxalin-6-yl)methyl)-2-fluoro-N-methyl-1',2',3',6'-tetrahydro-[3,4'-bipyridine]-6-carboxamide] had an IC50 greater than 10000 nM. For the same compound, on PARP1, the IC50 was 10 nM and the “Selectivity PARP2/PARP1” value came to 1004.6.
The compound `CNC(=O)c1ccc(N2CCN(Cc3cc(Oc4ccccc4F)c4nc(C)c(=O)[nH]c4c3)CC2)c(F)n1` [Example 27, 6-fluoro-5-(4-((8-(2-fluorophenoxy)-2-methyl-3-oxo-3,4-dihydroquinoxalin-6-yl)methyl)piperazin-1-yl)-N-methylpicolinamide] yielded an IC50 on PARP2 of 626 nM. In addition, on PARP1, half-maximal inhibition (IC50) required 2.2 nM and the “Selectivity PARP2/PARP1” value worked out at 278.9.
For `CNC(=O)c1ccc(N2CCN(Cc3cc(Oc4cccc(F)c4)c4nc(C)c(=O)[nH]c4c3)CC2)c(F)n1` [Example 28, 6-fluoro-5-(4-((8-(3-fluorophenoxy)-2-methyl-3-oxo-3,4-dihydroquinoxalin-6-yl)methyl)piperazin-1-yl)-N-methylpicolinamide], in that order: 654 nM, 1.8 nM and 356.3.
In turn, `CNC(=O)c1ccc(N2CCN(Cc3cc(Oc4ccncc4)c4nc(C)c(=O)[nH]c4c3)CC2)c(F)n1` [Example 29, 6-fluoro-N-methyl-5-(4-((2-methyl-3-oxo-8-(pyridin-4-yloxy)-3,4-dihydroquinoxalin-6-yl)methyl)piperazin-1-yl)picolinamide] had an IC50 against PARP2 of 2500 nM. On PARP1, the IC50 was determined as 11.5 nM and the “Selectivity PARP2/PARP1” value worked out at 217.3.
At PARP2, `CNC(=O)c1ccc(N2CCN(Cc3cc(C4CCCC4)c4nc(C)c(=O)[nH]c4c3)CC2)c(F)n1` [Example 31, 5-(4-((8-cyclopentyl-2-methyl-3-oxo-3,4-dihydroquinoxalin-6-yl)methyl)piperazin-1-yl)-6-fluoro-N-methylpicolinamide] gave an IC50 of 45.4 nM. Also, at PARP1, the half-maximal inhibitory concentration (IC50) turned out to be 2.5 nM and the “Selectivity PARP2/PARP1” value is on record as 18.4.
`CNC(=O)c1ccc(N2CCN(Cc3cc(OC(C)C(F)(F)F)c4nc(C)c(=O)[nH]c4c3)CC2)c(F)n1` (stereo not drawn) [Example 34, 6-fluoro-N-methyl-5-(4-((2-methyl-3-oxo-8-((1,1,1-trifluoropropan-2-yl)oxy)-3,4-dihydroquinoxalin-6-yl)methyl)piperazin-1-yl)picolinamide]: at PARP2, half-maximal inhibition (IC50) was put at 1020 nM. At PARP1, the IC50 was found to be 2.8 nM and the “Selectivity PARP2/PARP1” value is 359.1.
For `CC#Cc1cc(CN2CCN(c3ccc(C#N)nc3)CC2)cc2[nH]c(=O)c(C)nc12` [Example 36, 5-(4-((2-methyl-3-oxo-8-(prop-1-yn-1-yl)-3,4-dihydroquinoxalin-6-yl)methyl)piperazin-1-yl)picolinonitrile], in that order: 413 nM, 3 nM and 139.8.
With `CC#Cc1cc(CN2CCN(c3ccc(OC(F)F)nc3)CC2)cc2[nH]c(=O)c(C)nc12` [Example 37, 7-((4-(6-(difluoromethoxy)pyridin-3-yl)piperazin-1-yl)methyl)-3-methyl-5-(prop-1-yn-1-yl)quinoxalin-2(1H)-one], the half-inhibitory concentration (IC50) against PARP2 was 1910 nM; against PARP1 it was 12.9 nM. Also, the “Selectivity PARP2/PARP1” value at PARP1 came out at 148.2.
For `CC#Cc1cc(CN2CCN(c3ccc(C(=O)NC)nc3)CC2)c(F)c2[nH]c(=O)c(C)nc12` [Example 40, 5-(4-((5-fluoro-2-methyl-3-oxo-8-(prop-1-yn-1-yl)-3,4-dihydroquinoxalin-6-yl)methyl)piperazin-1-yl)-N-methylpicolinamide], in that order: greater than 10000 nM, 5.7 nM and greater than 1756.9.
For `CC#Cc1cc(CN2CC=C(c3ccc(C(=O)NC)nc3)CC2)c(F)c2[nH]c(=O)c(C)nc12` [Example 50, 1'-((5-fluoro-2-methyl-3-oxo-8-(prop-1-yn-1-yl)-3,4-dihydroquinoxalin-6-yl)methyl)-N-methyl-1',2',3',6'-tetrahydro-[3,4'-bipyridine]-6-carboxamide], in that order: greater than 10000 nM, 3.3 nM and greater than 3042.
As to `CC#Cc1cc(CN2CC=C(c3ccc(C(=O)NC)nc3)CC2)cc2[nH]c(=O)c(C)nc12` [Example 51, N-methyl-1'-((2-methyl-3-oxo-8-(prop-1-yn-1-yl)-3,4-dihydroquinoxalin-6-yl)methyl)-1',2',3',6'-tetrahydro-[3,4'-bipyridine]-6-carboxamide], on PARP2, the IC50 was 1420 nM. At PARP1, the IC50 was 7.2 nM and the “Selectivity PARP2/PARP1” value worked out at 198.0.
For `CNC(=O)c1ccc(C2=CCN(Cc3cc(OC(F)F)c4nc(C)c(=O)[nH]c4c3F)CC2)c(C)n1` [Example 62, 1'-((8-(difluoromethoxy)-5-fluoro-2-methyl-3-oxo-3,4-dihydroquinoxalin-6-yl)methyl)-N,2-dimethyl-1',2',3',6'-tetrahydro-[3,4'-bipyridine]-6-carboxamide], in that order: greater than 10000 nM, 6.4 nM and greater than 1554.
For `CC#Cc1cc(CN2CC=C(c3ccc(C(=O)NC4CC4)nc3)CC2)c(F)c2[nH]c(=O)c(C)nc12` [Example 67, N-cyclopropyl-1'-((5-fluoro-2-methyl-3-oxo-8-(prop-1-yn-1-yl)-3,4-dihydroquinoxalin-6-yl)methyl)-1',2',3',6'-tetrahydro-[3,4'-bipyridine]-6-carboxamide], in that order: greater than 10000 nM, 6.9 nM and greater than 1444.
For `CNC(=O)c1ccc(N2CCN(Cc3cc(-c4cccc(OC)c4)c4nc(C)c(=O)[nH]c4c3)CC2)c(F)n1` [Example 73], in that order: 2680 nM, 5.7 nM and 472.0.
